Measured values reported in PubChem BioAssay (NCI).
“And” between values parts separate entries of the source, which are not always exact repeats. Equal values may be shown once.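 Step 1: Grow cells in 96-well plates. Step 2: Expose to compound for 48 hours at 5 concentrations. Step 3: Interpolate endpoints linearly; if unreached, use highest concentration. Abbreviation: GI50, concentration required for 50% inhibition of growth. TGI marks complete inhibition of growth.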

Columns and labels:
Assay in all cases: inhibition of tumour cell growth, NCI panel, 48 h
[1] = tested on: MOLT-4 leukemia
[2] = tested on: MDA-MB-435
[3] = tested on: HCT-116 colon
[4] = tested on: ACHN renal
[5] = tested on: A549 NSCLC
[6] = tested on: OVCAR-4 ovarian
[7] = tested on: NCI-H23 lung
[8] = tested on: NCI-H522 lung
[9] = tested on: SR leukemia

SMILES	TGI [1] [µM]	TGI [2] [µM]	TGI [3] [µM]	TGI [4] [µM]	TGI [5] [µM]	TGI [6] [µM]	TGI [7] [µM]	TGI [8] [µM]	TGI [9] [µM]	GI50 [2]
COc1cc(C(CN)N(C)C)cc(OC)c1OC (stereo unspecified)	> 100	> 100	> 100	> 100	> 100	> 100	> 100	> 100	> 100	
O=c1cc2oc3ccc4ccccc4c3cc-2c(=O)[nH]1	8.02	25	31.2	32	42.8	48.5	4.78	27.9	11	
C[n+]1ccccc1/C=C/c1ccc2c(c1)OCO2	> 10	> 10	> 10	> 10	> 10	> 10	> 10	> 10	> 10	
COc1ccc(CCNC(=O)Cc2ccccc2CCO)cc1OC	> 100	> 100	> 100	> 100	> 100	> 100	> 100	> 100	> 100	
COc1ccc(-c2c(N)n(-c3cc(OC)cc(OC)c3)c(=O)c3cc([N+](=O)[O-])ccc23)cc1	> 100	> 100	> 100	> 100	> 100	> 100	> 100	> 100	> 100	
CC1(C)C2CCC1(C)C(NC(=O)CCN1CCOCC1)C2 (stereo unspecified)	> 100	> 100	> 100	> 100	> 100	> 100	> 100	> 100	> 100	
COC(=O)c1c(C)cccc1C1CN=NC12Cc1c(C)cccc1C2=O (stereo unspecified)	> 100	> 100	> 100	> 100	> 100	> 100	> 100	91.7	> 100	
COc1cccc(N2CCc3c(C)c(C#N)c4nc5ccccc5n4c32)c1		> 100	> 100	> 100	> 100	> 100	> 100	> 100		
CNNC1=NS(=O)(=O)c2cc(C(=O)OC)c(Cl)cc2S1	> 10	> 10	> 10	> 10	> 10	> 10	> 10	> 10		
COc1ccc(-n2c(C)nc3ccc(N=Cc4ccccc4)cc3c2=O)cc1	> 100	> 100	> 100	> 100		> 100	> 100	> 100	> 100	
O=C1c2ccccc2C(=O)c2[nH]c(=O)c(/C=N/Nc3ccc([N+](=O)[O-])cc3)nc21	> 78.6	3.99	> 73.1	45.4	> 100	> 75.5	3.79	13	> 65.2	
C[C@@H]1O[C@@H]2OCC[C@@H]2C2=C1C(=O)c1ccccc1C2=O	> 100	3.69		28.6	41.9	16.4	23.4	20.3	28.1	
CCOc1ccccc1N=NC1C(=O)N(C(=O)CC(=O)Nc2ccccc2Cl)N=C1C (stereo unspecified)	> 100	> 100	> 100	> 100	> 100	> 100	> 100	> 100	> 100	
CC(=O)OCC1OC(Sc2nc(-c3ccc(C)cc3)c(C#N)c(=O)n2C2OC(COC(C)=O)C(OC(C)=O)C(OC(C)=O)C2OC(C)=O)C(OC(C)=O)C(OC(C)=O)C1OC(C)=O (stereo unspecified)	> 100	> 100	> 100	> 100	> 100		> 100	> 100	> 100	> 100 µM and 34.7 µM
COc1ccc(C(F)(F)F)cc1NC(=O)O/N=C(/Cl)C(C)C	6.2	48.1	35.4	26.7	40	35.8	40.2	4.57		
COC(=O)c1ccc(NCc2cc(O)c3ccccc3c2O)cc1	9.73	4.63	38.4	25.7	23.4	25.9	30.3	43.8	21.7	
S=C(NNC1=NCCCCN1)Nc1ccccc1	> 100	> 100	65.8	> 100	> 100		> 100	> 100	> 100	
